Test results from patent publication US20050148553A1, “Use of tigecycline, alone, or in combination with rifampin to treat osteomyelitis and/or septic arthritis” (priority 2003, published 2005).

Assay: Whole body autoradiography after 30-minute 3 mg/kg IV infusion of [^14C]-tigecycline
Format: in vivo, Sprague-Dawley rats
Description: Male Sprague-Dawley and Long-Evans rats were obtained from Charles River Breeding Laboratories, Raleigh, N.C., and were quarantined for at least one week prior to the start of the study. […] The dosing solution was diluted and radioassayed directly in Ultima Gold scintillation counting cocktail (Packard Inc.). […] All pumps were calibrated prior to the administration of the compound. Rats were anesthetized with isoflurane prior to cardiac puncture exsanguination at the prescribed times after dosing. […] Control whole blood was collected from male Sprague-Dawley rats into tubes containing sodium heparin. Pooled blood was used to prepare the calibration standards and quality control samples. The standards were used to construct the standard curve for the quantification of radiolabeled drug distribution in tissues of whole blood cryosections. The quality controls, which were embedded in the same CMC block with each rat, were used for assessing intra- and inter-section variation in the thickness of rat whole-body cryosections. […] Immediately following euthanasia, each rat was totally immersed in a bath of hexane and dry ice (−75° C.) until frozen. Each carcass was dried and stored at −30° C. until embedded. […] Each frozen rat was sagitally sectioned at −20° C. A sufficient number of sections were collected to ensure sampling of all tissues of interest. The sections were dehydrated overnight in a cryochamber and then rapidly transferred to a dessicator containing CaSO4 to prevent condensation of atmospheric moisture while equilibrating to room temperature. The sections were mounted on cardboard and labeled with [^14C]-labeled black ink with a unique identification number. […] A small piece of Scotch tape was placed over the dried radioactive ink to prevent the contamination of the storage phosphor screens. Phosphor imaging plates, BAS-SR 2025 (Fuji Photo Film Co., Japan) were exposed to bright visible light for 20 minutes using an IP eraser (Raytest, USA Inc., New Castle, Del.) to remove background radiation. Sections and calibration blood standards were concurrently placed in direct contact with Ips and exposed for 7 days. All sections were stored at room temperature in a lead shielding box to minimize background levels. Phosphor images were generated using a Fujifilm BAS-5000 Bio-Imaging Analyzer and quantitated by MCID M2 Software, version 3.2 (Imaging Research Inc., St. Catherines, Ontario, Canada). The STDs and QCs were analyzed using the circular sampling tool in the MCID software program. Areas of interest in whole-body sections were manually outlined with the regional sampling tool to generate count data. Radioactive concentrations in select tissues were determined by digital analysis of the resulting autoradiograms on the basis of a calibration curve. […] The linear regression curve was then used to determine the concentration of unknown radioactivity of study samples. […] Blood samples were combusted using a Model 307 sample oxidizer (Packard Instrument Company). […] Research Triangle Park, N.C.), which applies a model-independent approach and standard procedures as described in Gibaldi and Perrier. Gibaldi, Pharmacokinetics, 1982. […] For IV infusion dosing, C30 min was the concentration at 30 minutes, the first sampling time point. The maximum plasma concentration (Cmax) and the corresponding time of peak concentration following IV administration were obtained directly by numerical inspection from the individual concentration-time data. The terminal half-life was calculated by the ratio of ln2/λz where λz is derived from the terminal slope of the concentration time curve. The area under the plasma concentration versus time curve from zero to infinity was calculated using the trapezoidal rule, where Clast is the last measurable plasma concentration. […]

## CN(C)c1cc(NC(=O)CNC(C)(C)C)c(O)c2c1C[C@H]1C[C@H]3[C@H](N(C)C)C(O)=C(C(N)=O)C(=O)[C@@]3(O)C(O)=C1C2=O [[^14C]-Tigecycline]
Liver, 24 Hrs
  Mean concentration of total radioactivity: 160 ng equiv./g
  Tissue:Plasma Ratio: 10.8
Liver, 72 Hrs
  Mean concentration of total radioactivity: 22.7 ng equiv./g
  Tissue:Plasma Ratio: 5.26
Liver, 168 Hrs
  Mean concentration of total radioactivity: 13.3 ng equiv./g
Liver, 336 Hrs
  Mean concentration of total radioactivity: <5.10 ng equiv./g
Liver, first AUC column
  AUC: 52676 Ng eq hr/g
Lung, 0.5 Hrs
  Mean concentration of total radioactivity: 2981 ng equiv./g
  Tissue:Plasma Ratio: 3.33
Lung, 8.5 Hrs
  Mean concentration of total radioactivity: 496 ng equiv./g
  Tissue:Plasma Ratio: 0.984
Lung, 24 Hrs
  Mean concentration of total radioactivity: 73.1 ng equiv./g
  Tissue:Plasma Ratio: 4.96
Lung, 72 Hrs
  Mean concentration of total radioactivity: 13.5 ng equiv./g
  Tissue:Plasma Ratio: 3.13
Lung, 168 Hrs
  Mean concentration of total radioactivity: <5.10 ng equiv./g
Lung, 336 Hrs
  Mean concentration of total radioactivity: <5.10 ng equiv./g
Lung, first AUC column
  AUC: 21263 Ng eq hr/g
Lymph Node
  AUC: 37010 Ng eq hr/g
Lymph Node, 0.5 Hrs
  Mean concentration of total radioactivity: 3473 ng equiv./g
  Tissue:Plasma Ratio: 3.88
Lymph Node, 8.5 Hrs
  Mean concentration of total radioactivity: 1276 ng equiv./g
  Tissue:Plasma Ratio: 2.53
Lymph Node, 24 Hrs
  Mean concentration of total radioactivity: 180 ng equiv./g
  Tissue:Plasma Ratio: 12.2
Lymph Node, 72 Hrs
  Mean concentration of total radioactivity: 29.1 ng equiv./g
  Tissue:Plasma Ratio: 6.75
Lymph Node, 168 Hrs
  Mean concentration of total radioactivity: <5.10 ng equiv./g
Lymph Node, 336 Hrs
  Mean concentration of total radioactivity: <5.10 ng equiv./g
Lymph Node, first AUC column
  AUC: 36478 Ng eq hr/g
Muscle
  AUC: 34910 Ng eq hr/g
Muscle, 0.5 Hrs
  Mean concentration of total radioactivity: 2260 ng equiv./g
  Tissue:Plasma Ratio: 2.52
Muscle, 8.5 Hrs
  Mean concentration of total radioactivity: 1863 ng equiv./g
  Tissue:Plasma Ratio: 3.70
Muscle, 24 Hrs
  Mean concentration of total radioactivity: 85.8 ng equiv./g
  Tissue:Plasma Ratio: 5.801
Muscle, 72 Hrs
  Mean concentration of total radioactivity: 6.24 ng equiv./g
  Tissue:Plasma Ratio: 1.45
Muscle, 168 Hrs
  Mean concentration of total radioactivity: <5.10 ng equiv./g
Muscle, 336 Hrs
  Mean concentration of total radioactivity: <5.10 ng equiv./g
Muscle, first AUC column
  AUC: 34833 Ng eq hr/g
Pancreas
  AUC: 33014 Ng eq hr/g
Pancreas, 0.5 Hrs
  Mean concentration of total radioactivity: 4437 ng equiv./g
  Tissue:Plasma Ratio: 4.96
Pancreas, 8.5 Hrs
  Mean concentration of total radioactivity: 971 ng equiv./g
  Tissue:Plasma Ratio: 1.93
Pancreas, 24 Hrs
  Mean concentration of total radioactivity: 70.0 ng equiv./g
  Tissue:Plasma Ratio: 4.75
Pancreas, 72 Hrs
  Mean concentration of total radioactivity: 7.41 ng equiv./g
  Tissue:Plasma Ratio: 1.72
Pancreas, 168 Hrs
  Mean concentration of total radioactivity: <5.10 ng equiv./g
Pancreas, 336 Hrs
  Mean concentration of total radioactivity: <5.10 ng equiv./g
Pancreas, first AUC column
  AUC: 32908 Ng eq hr/g
Pituitary
  AUC: 45164 Ng eq hr/g
Pituitary, 0.5 Hrs
  Mean concentration of total radioactivity: 3693 ng equiv./g
  Tissue:Plasma Ratio: 4.13
Pituitary, 8.5 Hrs
  Mean concentration of total radioactivity: 2014 ng equiv./g
  Tissue:Plasma Ratio: 4.00
Pituitary, 24 Hrs
  Tissue:Plasma Ratio: 9.79
Pituitary, 72 Hrs
  Tissue:Plasma Ratio: 4.36
Pituitary, first AUC column
  AUC: 44882 Ng eq hr/g
Plasma
  AUC: 10652 Ng eq hr/g
Plasma, 0.5 Hrs
  Tissue:Plasma Ratio: 1.00
Plasma, 8.5 Hrs
  Tissue:Plasma Ratio: 1.00
Plasma, 24 Hrs
  Tissue:Plasma Ratio: 1.00
Plasma, 72 Hrs
  Tissue:Plasma Ratio: 1.00
Plasma, first AUC column
  AUC: 10643 Ng eq hr/g
Salivary Gland
  AUC: 110979 Ng eq hr/g
Salivary Gland, 0.5 Hrs
  Tissue:Plasma Ratio: 6.45
Salivary Gland, 8.5 Hrs
  Tissue:Plasma Ratio: 12.53
Salivary Gland, 24 Hrs
  Tissue:Plasma Ratio: 20.3
Salivary Gland, 72 Hrs
  Tissue:Plasma Ratio: 7.32
Salivary Gland, first AUC column
  AUC: 110558 Ng eq hr/g
Skin
  AUC: 36471 Ng eq hr/g
Skin, 0.5 Hrs
  Tissue:Plasma Ratio: 2.15
Skin, 8.5 Hrs
  Tissue:Plasma Ratio: 1.14
Skin, 24 Hrs
  Tissue:Plasma Ratio: 16.9
Skin, 72 Hrs
  Tissue:Plasma Ratio: 19.3
Skin, first AUC column
  AUC: 31819 Ng eq hr/g
Spleen
  AUC: 70522 Ng eq hr/g
  Cmax: 6627 Ng equiv/g
Spleen, 0.5 Hrs
  Tissue:Plasma Ratio: 7.40
Spleen, 8.5 Hrs
  Tissue:Plasma Ratio: 3.36
Spleen, 24 Hrs
  Tissue:Plasma Ratio: 32.3
Spleen, 72 Hrs
  Tissue:Plasma Ratio: 16.7
Spleen, first AUC column
  AUC: 69638 Ng eq hr/g
Testes, 0.5 Hrs
  Tissue:Plasma Ratio: 0.388
Testes, 8.5 Hrs
  Tissue:Plasma Ratio: 0.716
Testes, 24 Hrs
  Tissue:Plasma Ratio: 8.08
Testes, 72 Hrs
  Tissue:Plasma Ratio: 3.80
Testes, first AUC column
  AUC: 9975 Ng eq hr/g
Testes, second AUC column
  AUC: 10323 Ng eq hr/g
Testes, second AUC column, listed as [^14C]-tigecycline
  AUC: 10303 Ng eq hr/g
Thymus
  AUC: 35430 Ng eq hr/g
Thymus, 0.5 Hrs
  Tissue:Plasma Ratio: 2.82
Thymus, 8.5 Hrs
  Tissue:Plasma Ratio: 3.16
Thymus, 24 Hrs
  Tissue:Plasma Ratio: 10.7
Thymus, 72 Hrs
  Tissue:Plasma Ratio: 3.55
Thymus, first AUC column
  AUC: 35204 Ng eq hr/g
Thyroid
  AUC: 330047 Ng eq hr/g
Thyroid, 0.5 Hrs
  Tissue:Plasma Ratio: 3.34
Thyroid, 8.5 Hrs
  Tissue:Plasma Ratio: 3.50
Thyroid, 24 Hrs
  Tissue:Plasma Ratio: 24.0
Thyroid, 72 Hrs
  Tissue:Plasma Ratio: 56.0
Thyroid, 72 Hrs, listed as [^14C]-tigecycline
  Tissue:Plasma Ratio: 56
Thyroid, first AUC column
  AUC: 113022 Ng eq hr/g
lung
  AUC: 21523 Ng eq hr/g
male, Sprague-Dawley, rat, in vivo
  elimination half-lives across tissues: 5 to 217 h
